For 21 molecules, Ki results are on record in ChEMBL document CHEMBL5223118, “Magnet for the Needle in Haystack: "Crystal Structure First" Fragment Hits Unlock Active Chemical Matter Using Targeted Exploration of Vast Chemical Spaces” (J Med Chem, 2022).

In general, Ki refers to the dissociation constant of the complex between target and ligand, obtained from inhibition or displacement. The low end stands for a stronger hold on the target, the high end for a looser hold on the target.

Molecules are shown by their SMILES.

For this experiment, the target named is cAMP-dependent protein kinase (PKA) (Homo sapiens, UniProt P22694+P17612+P22612). In words: Inhibition of PKA (unknown origin). In kind it is protein assay.
Molecule `N#Cc1cc(-c2cccc(C3CNCCO3)c2)ccc1N` (stereo unspecified) returned a Ki of 2101 µM.

`COC1(CNC(=O)N2CCN(c3ccncc3C)CC2)CCCS(=O)(=O)C1` (stereo unspecified) gave a Ki of 354.3 µM. The value for `CC1(CS(=O)(=O)N2CCc3c(sc(N)c3C#N)C2)CC1(F)F` (stereo unspecified) was 4743 µM. The value for `CCn1cc(-c2csc3c(=O)[nH]ccc23)cn1` was 1423 µM.

With `Cc1cc(C(=O)Nc2ccncc2)c(C)o1`, the Ki was 20000 µM.

For the molecule `NC1CCN(Cc2cccc(-c3ccc4c(O)nccc4c3)c2)C1` (racemic), the Ki was determined as 0.744 µM.

For the molecule `N[C@@H]1CCN(Cc2cccc(-c3ccc4c(O)nccc4c3)c2)C1`, the inhibitory constant (Ki) amounted to 3 µM. The value for `N#Cc1c(N)ccc(/C=C2/CCCNC2)c1Cl` was 85 µM; that for `COCC1CN=C(N2CCN(c3ccncc3Cl)CC2)N1.I` (stereo unspecified) was 139.3 µM; that for `N#Cc1c(N)ccnc1C=C1CCNCC1` was 6379 µM. The value for `N#Cc1cc(-c2cccc(CC(N)CC3CC3)c2)ccc1N` (stereo unspecified) was 540 µM. The value for `CN(C)Cc1ccc(F)c(-c2ccc3c(C#N)c(N)[nH]c3c2)c1` was 174.4 µM; that for `N#Cc1cc(-c2cccc(C3COCCN3)c2)ccc1N` (stereo unspecified) was 955 µM; that for `COc1cc(NCCNc2ccnc(N)c2C#N)cc(OC)c1` was 588 µM. In the case of `N[C@H]1CCN(Cc2cccc(-c3ccc4c(O)nccc4c3)c2)C1`, the Ki came to 0.74 µM. The value for `N#Cc1cc(-c2cccc(C3(CN)CCOCC3)c2)ccc1N` was 390.2 µM; that for `NCCC1CN(C(=O)c2ccc(C(N)=O)cc2)c2ccccc21` (stereo unspecified) was 5000 µM.

Molecule `N#Cc1c(N2CCCC2)n[nH]c1N` yielded a Ki of 5000 µM. The value for `NC1C=C(C(F)(F)F)C=NC1=O` (stereo unspecified) was 10000 µM; that for `COCC1CCC(NC(=O)c2ccc3c(c2)CCNC3=O)CC1` (stereo unspecified) was 6219 µM; that for `O=c1[nH]ccc2cc(-c3cccc(Cn4cccn4)c3)ccc12` was 154.7 µM.
